# Assay results taken from patent publication US20140350114A1, “COMPOSITIONS COMPRISING CYCLOHEXYLAMINES AND AMINOADAMANTANES” (MERZ PHARMA GmbH & CO. KGaA, priority 2003, published 2014).
# Columns and labels:
# [1] = tested on: Candida albicans, Aspergillus niger, Escherichia coli, Pseudomonas aeruginosa, Staphylococcus aureus; test: Antimicrobial Effectiveness Testing USP <51>, overall conclusion; format: cell-based; details: all inoculums
# Method: The testing was performed in accordance with the USP <51> using the culture conditions for inoculum specified in the test conditions. The Antimicrobial Effectiveness Testing (referred to later in the text as APE or antimicrobial effectiveness) is performed as described in USP 26, The United States Pharmacopeial Convention, Inc. (Rockville, Md., 2002; pp. 2002-2004). The test is conducted in five sterile, capped bacteriological containers into which a sufficient volume of product has been transferred. Test organisms include Candida albicans (ATCC No. 10231), Aspergillus niger (ATCC No. 16404), Escherichia coli (ATCC No. 8739), Pseudomonas aeruginosa (ATCC No. 9027), Staphylococcus aureus (ATCC No. 6538). Each container is inoculated with one of the prepared and standardized inoculum, and mix. […] The number of cfu present in each test preparation is determined by the plate-count procedure, specified in the monograph, for the applicable intervals. Using the calculated concentrations of cfu per mL present at the start of the test, the change in log10 values of the concentration of cfu per mL for each microorganism is calculated at the applicable test intervals, and the changes in terms of log reductions is expressed. Results are evaluated in accordance with the Product Category for Oral Products made with aqueous bases or vehicle.
# [2] = antimicrobial activity in preserving liquid aqueous formulations (general observation); details: at concentrations useful for pharmaceutical formulation purposes
Structure (SMILES),antimicrobial / preservative effectiveness against USP <51> criteria (conclusion) [1],antimicrobial activity [2]
"CC1(C)CC(C)(C)CC(C)(N)C1 [neramexane, 1-amino-1,3,3,5,5-pentamethylcyclohexane]",sufficient preservative efficacy,significant antimicrobial activity
"CC12CC3CC(C)(C1)CC(N)(C3)C2 [memantine, 1-amino-3,5-dimethyl adamantane]",–,significant antimicrobial activity
"CN(C)CCOCC(=O)NC12CC3CC(CC(C3)C1)C2 [tromantadine, 1-(dimethylaminoethoxyacetamido) adamantane]",–,significant antimicrobial activity
